Reference: the supplement of paper PMC10307832

Legend:
Experiment in all cases: relative viability (nuclei count vs DMSO), 5 days (fraction); higher = more cells survive
PC-3 [JPC-3] = test system: PC-3 [JPC-3]
Outline: (§1)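 Each reported value is a median over duplicate plates. It expresses relative viability: treated-well nuclei count divided by vehicle-well nuclei count. Lung cancer cell lines in 1536-well plates were dosed by pin tool a day after seeding, alone with one drug or with a fixed anchor-drug dose plus five library-drug doses (not always all listed) in √10 steps, and nuclei were counted after 5 days.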

LU99A = test system: LU99A
Outline: as §1

NCI-H2126 = test system: NCI-H2126
Outline: as §1

NCI-H520 = test system: NCI-H520
Outline: as §1

201T = test system: 201T
Outline: as §1

SW 1573 = test system: SW 1573
Outline: as §1

NCI-H1437 = test system: NCI-H1437
Outline: as §1

NCI-H2347 = test system: NCI-H2347
Outline: as §1

UMC-11 = test system: UMC-11
Outline: as §1

NCI-H358 = test system: NCI-H358
Outline: as §1

NCI-H1355 = test system: NCI-H1355
Outline: as §1

NCI-H727 = test system: NCI-H727
Outline: as §1

NCI-H2009 = test system: NCI-H2009
Outline: as §1

NCI-H2405 = test system: NCI-H2405
Outline: as §1

NCI-H838 = test system: NCI-H838
Outline: as §1

HCC-366 = test system: HCC-366
Outline: as §1

NCI-H1734 = test system: NCI-H1734
Outline: as §1

BEN = test system: BEN
Outline: as §1

HARA = test system: HARA
Outline: as §1

HCC-78 = test system: HCC-78
Outline: as §1

NCI-H441 = test system: NCI-H441
Outline: as §1

COCC1(CO)C(=O)C2CCN1CC2 (centres undefined) [PRIMA-1MET] + COc1cc2c(Oc3ccc(NC(=O)C4(C(=O)Nc5ccc(F)cc5)CC4)cc3F)ccnc2cc1OCCCN1CCOCC1 [Foretinib] (partner 0.25 µM)
relative viability (PC-3 [JPC-3]; first compound 0.2 µM): 1.12
relative viability (PC-3 [JPC-3]; first compound 0.6325 µM): 0.942
relative viability (PC-3 [JPC-3]; first compound 2 µM): 1.05
relative viability (PC-3 [JPC-3]; first compound 6.325 µM): 1.07
relative viability (PC-3 [JPC-3]; first compound 20 µM): 0.935
relative viability (LU99A; first compound 0.2 µM): 0.84
relative viability (LU99A; first compound 0.6325 µM): 0.806
relative viability (LU99A; first compound 2 µM): 0.813
relative viability (LU99A; first compound 6.325 µM): 0.913
relative viability (LU99A; first compound 20 µM): 0.394
relative viability (NCI-H2126; first compound 0.2 µM): 1.3
relative viability (NCI-H2126; first compound 0.6325 µM): 0.993
relative viability (NCI-H2126; first compound 2 µM): 1.22
relative viability (NCI-H2126; first compound 6.325 µM): 1.23
relative viability (NCI-H2126; first compound 20 µM): 1.13
relative viability (NCI-H520; first compound 0.2 µM): 0.794
relative viability (NCI-H520; first compound 0.6325 µM): 0.62
relative viability (NCI-H520; first compound 2 µM): 0.669
relative viability (NCI-H520; first compound 6.325 µM): 0.715
relative viability (NCI-H520; first compound 20 µM): 0.0989
relative viability (201T; first compound 0.2 µM): 1.33
relative viability (201T; first compound 0.6325 µM): 1.09
relative viability (201T; first compound 2 µM): 0.97
relative viability (201T; first compound 6.325 µM): 1.15
relative viability (201T; first compound 20 µM): 1.08
relative viability (SW 1573; first compound 0.2 µM): 1.36
relative viability (SW 1573; first compound 0.6325 µM): 0.404
relative viability (SW 1573; first compound 2 µM): 0.777
relative viability (SW 1573; first compound 6.325 µM): 0.485
relative viability (SW 1573; first compound 20 µM): 0.0333
relative viability (NCI-H1437; first compound 0.2 µM): 1.32
relative viability (NCI-H1437; first compound 0.6325 µM): 1.21
relative viability (NCI-H1437; first compound 2 µM): 1.24
relative viability (NCI-H1437; first compound 6.325 µM): 1.21
relative viability (NCI-H1437; first compound 20 µM): 1.17
relative viability (NCI-H2347; first compound 0.2 µM): 0.876
relative viability (NCI-H2347; first compound 0.6325 µM): 0.724
relative viability (NCI-H2347; first compound 6.325 µM): 1.1
relative viability (NCI-H2347; first compound 20 µM): 0.814
relative viability (UMC-11; first compound 0.2 µM): 1.15
relative viability (UMC-11; first compound 0.6325 µM): 0.916
relative viability (UMC-11; first compound 2 µM): 0.963
relative viability (UMC-11; first compound 6.325 µM): 0.979
relative viability (UMC-11; first compound 20 µM): 1.02
relative viability (NCI-H358; first compound 0.2 µM): 0.881
relative viability (NCI-H358; first compound 2 µM): 0.592
relative viability (NCI-H358; first compound 6.325 µM): 0.634
relative viability (NCI-H358; first compound 20 µM): 0.0429
relative viability (NCI-H1355; first compound 0.2 µM): 1.02
relative viability (NCI-H1355; first compound 0.6325 µM): 0.846
relative viability (NCI-H1355; first compound 2 µM): 1.01
relative viability (NCI-H1355; first compound 6.325 µM): 1.01
relative viability (NCI-H1355; first compound 20 µM): 0.956
relative viability (NCI-H727; first compound 0.2 µM): 0.636
relative viability (NCI-H727; first compound 0.6325 µM): 0.674
relative viability (NCI-H727; first compound 2 µM): 0.782
relative viability (NCI-H727; first compound 6.325 µM): 1.03
relative viability (NCI-H727; first compound 20 µM): 0.44
relative viability (NCI-H2009; first compound 0.2 µM): 1.33
relative viability (NCI-H2009; first compound 0.6325 µM): 1.17
relative viability (NCI-H2009; first compound 2 µM): 1.22
relative viability (NCI-H2009; first compound 6.325 µM): 1.22
relative viability (NCI-H2009; first compound 20 µM): 0.52
relative viability (NCI-H2405; first compound 0.2 µM): 1.03
relative viability (NCI-H2405; first compound 0.6325 µM): 1.03
relative viability (NCI-H2405; first compound 6.325 µM): 1.03
relative viability (NCI-H2405; first compound 20 µM): 0.506
relative viability (NCI-H838; first compound 0.2 µM): 1.23
relative viability (NCI-H838; first compound 0.6325 µM): 0.822
relative viability (NCI-H838; first compound 2 µM): 1.02
relative viability (NCI-H838; first compound 6.325 µM): 1.07
relative viability (NCI-H838; first compound 20 µM): 0.683
relative viability (HCC-366; first compound 0.2 µM): 0.84
relative viability (HCC-366; first compound 0.6325 µM): 0.946
relative viability (HCC-366; first compound 2 µM): 0.826
relative viability (HCC-366; first compound 6.325 µM): 0.974
relative viability (HCC-366; first compound 20 µM): 0.207
relative viability (NCI-H1734; first compound 0.2 µM): 1.04
relative viability (NCI-H1734; first compound 0.6325 µM): 0.741
relative viability (NCI-H1734; first compound 2 µM): 0.741
relative viability (NCI-H1734; first compound 6.325 µM): 0.759
relative viability (NCI-H1734; first compound 20 µM): 0.0666
relative viability (BEN; first compound 0.2 µM): 0.653
relative viability (BEN; first compound 0.6325 µM): 0.586
relative viability (BEN; first compound 6.325 µM): 0.741
relative viability (BEN; first compound 20 µM): 0.954
relative viability (HARA; first compound 0.2 µM): 1
relative viability (HARA; first compound 0.6325 µM): 0.881
relative viability (HARA; first compound 6.325 µM): 0.742
relative viability (HARA; first compound 20 µM): 0.704
relative viability (HCC-78; first compound 0.2 µM): 0.671
relative viability (HCC-78; first compound 0.6325 µM): 0.477
relative viability (HCC-78; first compound 6.325 µM): 0.54
relative viability (HCC-78; first compound 20 µM): 0.441
relative viability (NCI-H441; first compound 0.2 µM): 0.954
relative viability (NCI-H441; first compound 0.6325 µM): 0.908
relative viability (NCI-H441; first compound 2 µM): 0.988
relative viability (NCI-H441; first compound 6.325 µM): 1
relative viability (NCI-H441; first compound 20 µM): 0.496
